# Tests used:
# M. morganii [1] = experiment: ESBL NDP test using cultured strains; assay type: biochemical, Morganella morganii; parameters: key: (+) and (−) referred to color change being, red to yellow or unchanged, respectively; (+) and (−) referred to color change being, red to yellow or unchanged, respectively
# Procedure: (§1) Strains were isolated on Mueller-Hinton agar (Biorad, Marnes-la-Coquette, France) and incubated at 37° C. for 16 h to 24 h before performing the NDP rapid ESBL test as follows. One calibrated inoculated loop (10 μl) of the tested strain was resuspended in 150 μl of 20 mM Tris-HCl lysis buffer previously distributed in Microbead tubes (Ultraclean Microbial DNA isolation kit Bead Tubes, MO BIO Laboratories, Carlsbad, USA). Mechanical lysis of bacteria was performed by strong agitation of Microbead tubes using a vortex adapter (MO BIO Laboratories) for 30 min at room temperature. This bacterial suspension was centrifuged at 10,000×g at room temperature for 5 min. Thirty μl of the supernatant was mixed in a well of a 96-well tray with 100 μl of a 1 ml solution made of 3 mg of purified cefotaxime sodium salt (Sigma-Aldrich, Saint-Quentin-Fallavier, France) in a pH 7.8 phenol red solution. […]. The phenol red solution was made by taking 2 ml of a concentrated pH 8 phenol solution (made from a mixture of phenol red 0.5% in distilled water) to which 16.6 ml of distilled water was added. The pH value was then adjusted to a 7.8 value by adding drops of a 1 N NaOH solution. Mixture of the phenol red solution and the enzymatic suspension being tested was incubated at 37° C. for 30 min. Similarly, culture extracts were analyzed in wells containing cefotaxime and tazobactam (4 mg/ml). Other concentrations of tazobactam and other ß-lactamase inhibitors were tested giving less clear results (data not shown). […] This definition of test positivity will be applied throughout the study.
# M. morganii [2] = experiment: ESBL NDP test using spiked blood cultures; assay type: biochemical, Morganella morganii; parameters: key: (+) and (−) referred to color change being, red to yellow or unchanged, respectively; (+) and (−) referred to color change being, red to yellow or unchanged, respectively
# Procedure: (§2) Strains were isolated on Mueller-Hinton agar (Biorad, Marnes-la-Coquette, France) and incubated at 37° C. for 16 h to 24 h before performing the NDP rapid ESBL test as follows. One calibrated inoculated loop (10 μl) of the tested strain was resuspended in 150 μl of 20 mM Tris-HCl lysis buffer previously distributed in Microbead tubes (Ultraclean Microbial DNA isolation kit Bead Tubes, MO BIO Laboratories, Carlsbad, USA). Mechanical lysis of bacteria was performed by strong agitation of Microbead tubes using a vortex adapter (MO BIO Laboratories) for 30 min at room temperature. This bacterial suspension was centrifuged at 10,000×g at room temperature for 5 min. Thirty μl of the supernatant was mixed in a well of a 96-well tray with 100 μl of a 1 ml solution made of 3 mg of purified cefotaxime sodium salt (Sigma-Aldrich, Saint-Quentin-Fallavier, France) in a pH 7.8 phenol red solution. […]. […] Similarly, culture extracts were analyzed in wells containing cefotaxime and tazobactam (4 mg/ml). […]
# (§3) Rapid detection of ESBL producers was attempted from spiked blood cultures which positivity was assessed using the BactAlert blood culture system (bioMérieux). […] Spiked blood cultures were made of 1×10^3 CFU of each strain and incubated 24 to 48 h before a positivity of the blood culture was detected by the BactAlert system. […]
# E. cloacae [3] = experiment: Susceptibility testing, MIC by Etest; assay type: cell-based, Enterobacter cloacae
# Procedure: Susceptibility testing was performed by determining MIC values using the Etest® (AB bioMérieux; Solna, Sweden) on Mueller-Hinton agar plates at 37° C. and results were recorded according to US guidelines (CLSI), as updated in 2012 (2). The breakpoints for cefotaxime are susceptible (S)≤1 and resistant (R)≥4 μg/ml, and for ceftazidime S≤4 and R≥16 μg/ml.
# P. mirabilis = experiment: ESBL NDP test using spiked blood cultures; assay type: biochemical, Proteus mirabilis; parameters: key: (+) and (−) referred to color change being, red to yellow or unchanged, respectively; (+) and (−) referred to color change being, red to yellow or unchanged, respectively
# Procedure: as §1
# as §3, with “(bioMérieux). […] This inoculum was reached after 24-48 h incubation in this BactAlert system. Strains were inoculated into blood culture system in presence of 10 ml of sterile blood.” for “(bioMérieux).”
# E. cloacae [4] = experiment: ESBL NDP test using spiked blood cultures; assay type: biochemical, Enterobacter cloacae; parameters: key: (+) and (−) referred to color change being, red to yellow or unchanged, respectively; (+) and (−) referred to color change being, red to yellow or unchanged, respectively
# Procedure: as §1
# Rapid detection of ESBL producers was attempted from spiked blood cultures which positivity was assessed using the BactAlert blood culture system (bioMérieux). […] This inoculum was reached after 24-48 h incubation in this BactAlert system. Strains were inoculated into blood culture system in presence of 10 ml of sterile blood. The panel of strains used for spiking blood cultures included either non-ESBL producers (n=24) or ESBL producers (n=64) (Table 4). Spiked blood cultures were made of 1×10^3 CFU of each strain and incubated 24 to 48 h before a positivity of the blood culture was detected by the BactAlert system. Then, 15 ml of spiked blood culture were transferred in a sterile tube and centrifuged at 1,500×g for 3 min to pellet the red blood cells. The supernatant was recovered and centrifuged for 15 min at 4,000×g to pellet the bacteria. The bacterial pellet was then resuspended in 500 μl of distilled water, transferred in 1.5 ml tube and thoroughly vortexed for 15 sec to lyse the remnant red blood cells and wash the bacterial pellet. After 5 min of centrifugation at 10,000×g, the bacterial pellet was resuspended in 150 μl of 20 mM Tris-HCl lysis buffer and distributed in beadtubes. The ESBL NDP test was then applied to this pellet as described above. Experiments were systematically performed in triplicate.
# P. stuartii = experiment: ESBL NDP test using cultured strains; assay type: biochemical, Providencia stuartii; parameters: key: (+) and (−) referred to color change being, red to yellow or unchanged, respectively; (+) and (−) referred to color change being, red to yellow or unchanged, respectively; details: P. stuartii TEM-24, n=1
# Procedure: Strains were isolated on Mueller-Hinton agar (Biorad, Marnes-la-Coquette, France) and incubated at 37° C. for 16 h to 24 h before performing the NDP rapid ESBL test as follows. One calibrated inoculated loop (10 μl) of the tested strain was resuspended in 150 μl of 20 mM Tris-HCl lysis buffer previously distributed in Microbead tubes (Ultraclean Microbial DNA isolation kit Bead Tubes, MO BIO Laboratories, Carlsbad, USA). Mechanical lysis of bacteria was performed by strong agitation of Microbead tubes using a vortex adapter (MO BIO Laboratories) for 30 min at room temperature. This bacterial suspension was centrifuged at 10,000×g at room temperature for 5 min. Thirty μl of the supernatant was mixed in a well of a 96-well tray with 100 μl of a 1 ml solution made of 3 mg of purified cefotaxime sodium salt (Sigma-Aldrich, Saint-Quentin-Fallavier, France) in a pH 7.8 phenol red solution. […]. The phenol red solution was made by taking 2 ml of a concentrated pH 8 phenol solution (made from a mixture of phenol red 0.5% in distilled water) to which 16.6 ml of distilled water was added. The pH value was then adjusted to a 7.8 value by adding drops of a 1 N NaOH solution. Mixture of the phenol red solution and the enzymatic suspension being tested was incubated at 37° C. for 30 min. Similarly, culture extracts were analyzed in wells containing cefotaxime and tazobactam (4 mg/ml). […]
# E. aerogenes = experiment: ESBL NDP test using spiked blood cultures; assay type: biochemical, Enterobacter aerogenes; parameters: key: (+) and (−) referred to color change being, red to yellow or unchanged, respectively; (+) and (−) referred to color change being, red to yellow or unchanged, respectively
# Procedure: as §2, §3
# [5] = M. morganii BG 1106 5902, Wild-type
# [6] = M. morganii BG 1117 0617, Wild-type
compound,measurement,setting,value
"CO/N=C(\C(=O)N[C@@H]1C(=O)N2C(C(=O)O)=C(COC(C)=O)CS[C@H]12)c1csc(N)n1 [CTX, cefotaxime]",ESBL NDP Test from: Colonies,M. morganii [1]; [5],−
same,ESBL NDP Test from: Colonies,M. morganii [1]; [6],−
same,Test (color change),"M. morganii [1]; M. morganii Wild-type, chromosome-encoded cephalosporinase, n=2",−
same,ESBL NDP Test from: Blood culture,M. morganii [2]; [5],−
same,ESBL NDP Test from: Blood culture,M. morganii [2]; [6],−
same,MICs range,"E. cloacae [3]; E. cloacae CTX-M-14, n=1",>16 µg/mL
same,MICs range,"E. cloacae [3]; E. cloacae CTX-M-15, n=17",>16 µg/mL
same,MICs range,"E. cloacae [3]; E. cloacae GES-5, n=1",>16 µg/mL
same,MICs range,"E. cloacae [3]; E. cloacae PER-1, n=1",>16 µg/mL
same,MICs range,"E. cloacae [3]; E. cloacae SHV-5, n=1",>16 µg/mL
same,MICs range,"E. cloacae [3]; E. cloacae TEM-3, n=2",>16 µg/mL
same,MICs range,"E. cloacae [3]; E. cloacae VEB-1, n=1",16 µg/mL
same,MICs range,"E. cloacae [3]; E. cloacae Wild-type, chromosome-encoded cephalosporinase, n=5",0.09 to 0.5 µg/mL
same,MICs range,"E. cloacae [3]; E. cloacae, overexpressed chromosome-encoded cephalosporinase, n=2",>16 µg/mL
same,MICs range,"E. cloacae [3]; E. cloacae, overexpressed chromosome-encoded cephalosporinase, n=3",>16 µg/mL
same,ESBL NDP Test from: Blood culture,"P. mirabilis; P. mirabilis 09.128, TEM-52",+
same,ESBL NDP Test from: Blood culture,"P. mirabilis; P. mirabilis 09.177, TEM-21",+
same,ESBL NDP Test from: Blood culture,"P. mirabilis; P. mirabilis BIK, ACC-1",−
same,ESBL NDP Test from: Blood culture,"E. cloacae [4]; E. cloacae 09.57, SHV-12",+
same,ESBL NDP Test from: Blood culture,"E. cloacae [4]; E. cloacae 10.75, CTX-M-15",+
same,ESBL NDP Test from: Blood culture,"E. cloacae [4]; E. cloacae 10.87, CTX-M-15",+
same,ESBL NDP Test from: Blood culture,"E. cloacae [4]; E. cloacae BG 1106 7725, Wild-type",−
same,ESBL NDP Test from: Blood culture,"E. cloacae [4]; E. cloacae BG 1106 7746, Wild-type",−
same,ESBL NDP Test from: Blood culture,"E. cloacae [4]; E. cloacae BG 1107 4118, Wild-type",−
same,Test (color change),P. stuartii,−
same,ESBL NDP Test from: Blood culture,"E. aerogenes; E. aerogenes BN 1113 0225, Wild-type",−
same,ESBL NDP Test from: Blood culture,"E. aerogenes; E. aerogenes E2O15, TEM-121",+

# — patent US10793892B2, “Method for detecting the presence of expanded spectrum β-lactamase-producing bacteria in a sample” (INSERM (INSTITUT NATIONAL DE LA SANTE ET DE LA RECHERCHE …, priority 2011, dated 2020)
